Data reported in ChEMBL document CHEMBL1134106, “Novel heteroaryl replacements of aromatic 3-tetrafluoroethoxy substituents in trifluoro-3-(tertiaryamino)-2-propanols as potent inhibitors of cholesteryl ester transfer protein” (Bioorg Med Chem Lett, 2001).

What was measured:
[1] = biological target: T1, Cholesteryl ester transfer protein (Homo sapiens, UniProt P11597); test: Inhibition of recombinant human CETP mediated transfer of [3H]cholesteryl ester from HDL to LDL
T1 sequence (P11597 whole entry): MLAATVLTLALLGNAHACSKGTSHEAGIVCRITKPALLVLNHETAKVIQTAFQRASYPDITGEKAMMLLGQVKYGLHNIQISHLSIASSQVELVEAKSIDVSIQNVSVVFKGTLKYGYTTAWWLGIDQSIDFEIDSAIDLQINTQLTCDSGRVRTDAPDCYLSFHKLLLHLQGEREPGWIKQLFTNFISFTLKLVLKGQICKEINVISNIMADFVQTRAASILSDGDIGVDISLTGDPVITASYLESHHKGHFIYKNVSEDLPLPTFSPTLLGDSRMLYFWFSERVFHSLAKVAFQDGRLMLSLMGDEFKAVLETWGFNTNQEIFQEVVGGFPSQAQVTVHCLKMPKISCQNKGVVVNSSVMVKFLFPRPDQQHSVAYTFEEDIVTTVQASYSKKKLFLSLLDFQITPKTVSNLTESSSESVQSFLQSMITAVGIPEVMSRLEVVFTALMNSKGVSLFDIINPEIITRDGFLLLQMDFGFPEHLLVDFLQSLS

[2] = biological target: T1, Cholesteryl ester transfer protein; test: In vitro human CETP inhibitory activity assessed by measuring the rate of [3H]cholesteryl ester ([3H]CE) from HDL donor particles to LDL acceptor particles using human serum by serum transfer assay

IC50 [1] [µM] | IC50 [2] [µM] | SMILES
1.12 | 83 | OC(CN(Cc1cccc(-c2cccs2)c1)c1cccc(Oc2ccccc2)c1)C(F)(F)F (configuration not stated)
4.42 | 47 | OC(CN(Cc1cccc(-c2ccccc2)c1)c1cccc(Oc2ccccc2)c1)C(F)(F)F (configuration not stated)
3.96 | – | Cc1ccc(CN(CC(O)C(F)(F)F)c2cccc(Oc3ccccc3)c2)cc1-c1ccco1 (configuration not stated)
14.3 | – | OC(CN(Cc1cccc(-c2cccnc2)c1)c1cccc(Oc2ccccc2)c1)C(F)(F)F (configuration not stated)

SMILES | IC50 [1] [µM] | IC50 [2] [µM]
OC(CN(Cc1ccc(F)c(-c2ccco2)c1)c1cccc(Oc2ccccc2)c1)C(F)(F)F (configuration not stated) | 0.72 | –
